# Laboratory results as given in patent publication US11168179B2, “Macromolecular transition metal complexes for treatment of cancer and process for their preparation” (FACULDADE DE CIÉNCIAS DA UNIVERSIDADE DE LISBOA, priority 2014, dated 2021).
# Read-outs that look alike come from different tables or passages of the source.
# Experiments:
# [1] = system: MCF-7 breast adenocarcinoma cells; assay: MTT cell viability assay, MCF-7; type: cell-based, human
# Method: (§1) The cell culture was made in flasks containing the medium appropriate to cell proliferation and allowing cell adhesion.
# For this, the cells were seeded in 200 μl of complete cell medium in 96-well plates.
# Cells were left to adhere for 24 h, followed by the addition of various dilutions in medium (200 μl) of the test compound. The test compound was first solubilized in DMSO and then in the cell medium and added to the cells at concentrations 1-100 μM. The final DMSO concentrations in the medium were lower than 0.5%. After 24 h and 72 h incubation, 37° C./5% CO2, the medium was substituted by 200 μl of the MTT solution (0.5 mg/ml in phosphate buffer—PBS). After 3-4 h incubation, the MTT solution was removed and the formazan crystals formed by the viable cells were dissolved in DMSO (200 μl). […] The cytotoxicity of the test compound was quantified calculating the drug concentration that inhibits the growth of 50% of cells (IC50) (GraphPad Prism software). The assessment was carried out with at least two independent experiments, each comprising six replicates per concentration.
# Upon reaching the required confluence, the cells were harvested through addition of a 0.05% trypsin-EDTA solution (Gibco®). […] For this, the cells were seeded in 200 μl of complete cell medium in 96-well plates. […] Cells were left to adhere for 24 h, followed by the addition of various dilutions in medium (200 μl) of the test compound. The test compound was first solubilized in DMSO and then in the cell medium and added to the cells at concentrations 1-100 μM. The final DMSO concentrations in the medium were lower than 0.5%. […] The cytotoxicity of the test compound was quantified calculating the drug concentration that inhibits the growth of 50% of cells (IC50) (GraphPad Prism software). The assessment was carried out with at least two independent experiments, each comprising six replicates per concentration.
# glioma U87 cells = conditions: literature value (J. Biol. Chem. 1997, 272:14041-14044); read-out: value found in the literature for the glioma line; cited from earlier work
# [2] = system: A2780 ovarian carcinoma cells; assay: MTT cell viability assay, A2780; type: cell-based, human; conditions: 72 h incubation, read-out: IC50 after a 72 h incubation, A2780
# Method: (§2) The cultures of human breast (MDA-MB-231; ATCC) and ovarian (A2780, ATCC) carcinoma cell lines, were carried out in DMEM (Gibco) medium containing GlutaMax I (MDA-MB-231) or RPMI (A2780) and were completed with 10% FBS and 1% penicillin-streptomycin and kept at 37° C. in a humidified atmosphere containing 5% de CO2.
# as §1
# (§3) Upon reaching the required confluence, the cells were harvested through addition of a 0.05% trypsin-EDTA solution (Gibco®). […] For this, the cells were seeded in 200 μl of complete cell medium in 96-well plates. Cell density was 2×10^4 viable cells (MDA-MB-231 and A2780) per well.
# (§4) Cells were left to adhere for 24 h, followed by the addition of various dilutions in medium (200 μl) of the test compound. The test compound was first solubilized in DMSO and then in the cell medium and added to the cells at concentrations 1-100 μM. The final DMSO concentrations in the medium were lower than 0.5%. After 24 h and 72 h incubation, 37° C./5% CO2, the medium was substituted by 200 μl of the MTT solution (0.5 mg/ml in phosphate buffer—PBS). After 3-4 h incubation, the MTT solution was removed and the formazan crystals formed by the viable cells were dissolved in DMSO (200 μl). Cell viability was assessed measuring the absorbance at 570 nm, using a plate spectrophotometer.
# (§5) The cytotoxicity of the test compound was quantified calculating the drug concentration that inhibits the growth of 50% of cells (IC50) (GraphPad Prism software). The assessment was carried out with at least two independent experiments, each comprising six replicates per concentration. Dose-response curves of cell viability, after a 72 h incubation, are represented in the graphs of the FIGS. 4a and 4b.
# Upon reaching the required confluence, the cells were harvested through addition of a 0.05% trypsin-EDTA solution (Gibco®). […] For this, the cells were seeded in 200 μl of complete cell medium in 96-well plates. […]
# [3] = system: MDA-MB-231 human breast carcinoma cells; assay: MTT cell viability assay, MDA-MB-231; type: cell-based; conditions: 72 h incubation, read-out: IC50 after a 72 h incubation, MDA-MB-231
# Method: as §2, §1, §3, §4, §5
# MCF-7 cancer cell line [4] = conditions: 48 h of incubation, 10 μM
# Description: This assay is widely used to determine if cells are viable, apoptotic, or necrotic through differences in plasma membrane integrity and permeability. All in all, Annexin V/PI is a commonly used approach for studying cell death (Rieger et al. 2011).
# Annexin V a marker of early apoptosis. […] Cisplatin was used as a positive control since it is known to induce apoptosis.
# MCF-7 cancer cell line [5] = conditions: immunofluorescence, versus control cells
# Description: In this immunofluorescence assay, Alexa Fluor 488® phalloidin, which is a high-affinity filamentous actin (F-actin) probe conjugated to the green-fluorescent Alexa Fluor® 488 dye was used. In order to obtain nuclear staining DAPI (blue) was used (FIG. 9).
# [6] = system: human cells of MCF-7 breast cancer; conditions: 24 h incubation, versus untreated control cells (100%)
# Description: The intrinsic pathway is triggered by intracellular or extracellular stress. The signals that are transduced in response to these stimuli converge mainly to the mitochondria. This organelle integrates the cell death stimuli, inducing mitochondrial permeabilization and consequent release of pro-apoptotic molecules present therein.
# [7] = 72 h incubation, read-out: IC50 after a 72 h incubation, MCF-7
# [8] = 24 h incubation, read-out: IC50 after a 24 h incubation, MCF-7
Compound,"IC50 [1, 7] [µM]",IC50 (glioma U87 cells) [µM],IC50 [2] [µM],IC50 [3] [µM],percentage of Annexin V stained cells in comparison to the control (MCF-7 cancer cell line [4]),type of cell death induced (MCF-7 cancer cell line [4]),effect on cytoskeleton (F-actin filaments) (MCF-7 cancer cell line [5]),"IC50 [1, 8] [µM]",expression of catalase and SMAC diablo proteins [6]
"N.N.[Cl][Pt][Cl] [Cisplatin, reference compound]",28 ± 6,130 ± 53,2 ± 0.1,39 ± 5,–,–,–,–,–
"[(1,1′-{1,1′-(1,1′-{2,2′-Bipyridine-4,4′-diylbis(methylene)}bis(oxy)bis(1-oxopropane-2,1-diyl))bis(poly(lactic acid)-yl))}bis(oxy)bis(1-oxopropane-2,1-diyl)di(2S,3S,4S,5R,6R)-3,4,5,6-tetrahydroxyoxane-2-carboxylate)-k^2N,N′](triphenylphosphane)(η^5-cyclopentadienyl)-ruthenium(II) triflate [Compound 6]",4.62 ± 1.15,–,2.2 ± 0.85,5.96 ± 3.25,increase,apoptosis,cytoskeleton loses its organization,5 ± 1.65,decrease
"(2,2′-bipyridine-4,4′-diylbis{methylene}bis(2-{2-(2-hydroxypropanoyloxy)poly(lactic acid)-yl}propanoate)-k^2N,N′)(triphenylphosphane)(η^5-cyclopentadienyl)ruthenium(II) triflate [Compound 5]",4.09 ± 1.97,–,3.4 ± 1.3,2.7 ± 0.55,increase,apoptosis,cytoskeleton loses its organization,4.25 ± 1.15,decrease
